SMILES strings stand for the structures. Structures can show the parent of a compound that is named as a salt.

Usually IC50 stands for the concentration at which inhibition is half-maximal.

The target of this assay is T1, estrogen receptor (ER) (Homo sapiens, UniProt P03372).
T1 construct: expressed in transfected cells; host or cells: CHO cells (ribosome-free cytosol)
T1 sequence (P03372 1-595): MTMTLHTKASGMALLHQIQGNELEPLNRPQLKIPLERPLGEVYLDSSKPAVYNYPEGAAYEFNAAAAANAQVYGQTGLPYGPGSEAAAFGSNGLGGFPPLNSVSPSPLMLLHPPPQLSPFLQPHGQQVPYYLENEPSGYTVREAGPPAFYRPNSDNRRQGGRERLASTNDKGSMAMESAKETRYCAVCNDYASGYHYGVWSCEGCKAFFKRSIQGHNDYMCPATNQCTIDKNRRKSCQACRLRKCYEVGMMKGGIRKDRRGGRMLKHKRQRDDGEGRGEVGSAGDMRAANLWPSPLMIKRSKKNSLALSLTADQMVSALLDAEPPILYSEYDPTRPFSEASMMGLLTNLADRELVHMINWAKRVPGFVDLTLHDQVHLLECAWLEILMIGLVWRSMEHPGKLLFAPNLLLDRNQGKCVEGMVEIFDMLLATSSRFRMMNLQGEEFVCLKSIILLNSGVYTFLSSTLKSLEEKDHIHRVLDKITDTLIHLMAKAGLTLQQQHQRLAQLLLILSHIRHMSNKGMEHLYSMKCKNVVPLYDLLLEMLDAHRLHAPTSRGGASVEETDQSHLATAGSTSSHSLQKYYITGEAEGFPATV
Put plainly: Receptor Binding Assay (competition with [3H]17β-estradiol). Particulars: cytosol of CHO cells overexpressing the estrogen receptor; 0.8 nM [3H]17β-estradiol; 12 competitor concentrations; room temperature, 2.5 h.
With `CC1(C)c2cc(O)ccc2N(Cc2ccc(OCCN3CCCCC3)cc2)C1c1ccccc1` (stereo not shown) [Example No. 4, 3,3-dimethyl-2-phenyl-1-[4-(2-piperidin-1-yl-ethoxy)-benzyl]-2,3-dihydro-1H-indol-5-ol (HCl)], the 50% inhibitory concentration (IC50) was 800 nM.
As for `CC1(C)c2cc(O)ccc2N(Cc2ccc(OCCN3CCCCCC3)cc2)C1c1ccccc1` (stereo not shown) [Example No. 6, 1-[4-(2-Azepan-1-yl-ethoxy)-benzyl]-3,3-dimethyl-2-phenyl-2,3-dihydro-1H-indol-5-ol], the figure is 1000 nM; as for `CC1(C)c2cc(O)ccc2N(Cc2ccc(OCCN3CCCCC3)cc2)C1c1ccc(O)cc1` (stereo not shown) [Example No. 9, 2-(4-Hydroxy-phenyl)-3,3-dimethyl-1-[4-(2-piperidin-1-yl-ethoxy)-benzyl]-2,3-dihydro-1H-indol-5-ol], 310 nM; as for `CC1(C)c2cc(O)ccc2N(Cc2ccc(OCCN3CCCCCC3)cc2)C1(c1ccccc1)c1ccc(O)cc1` (stereo not shown) [Example No. 11, 1-[4-(2-Azepan-1-yl-ethoxy)-benzyl]-2-(4-hydroxy-phenyl)-3,3-dimethyl-2-Phenyl-2,3-dihydro-1H-indol-5-ol], 350 nM.

The values are drawn from patent EP1159267B1, “N-SUBSTITUTED INDOLINES AS ESTROGENIC AGENTS” (Wyeth, priority 1999, dated 2000).
